# What was measured:
# [1] = system: human colon cancer HT-29 cells; assay: CCK-8 cell viability assay, HT-29; type: cell-based; settings: for inhibitory activity on cell viability compared with AZM: HT-29, normoxic and hypoxic, 48 h, Figure 5
# Experimental: (§1) The MDA-MB-231, HT-29 and MG-63 cell lines were provided by KeyGEN BioTECH Ltd (Nanjing, Jiangsu, China). The cells were digested and counted to prepare a cell suspension of 5.0 × 10^4 cells/mL, and then 100 μL of cell suspension was added to each well of the 96-well cell culture plate. The plates were placed in a 37 °C, 5% CO2 incubator (Corning Incorporated, Corning, New York, USA) for 24 h. The drug was diluted with the culture medium to the required concentration, ed100 μL of the corresponding drug-containing medium was added to each well, and a negative control group was set up at the same time. The 96-well cell culture plates were placed into a normoxic incubator (37 °C, 5% CO2) and hypoxic incubator (37 °C, 5% CO2, 0.5% O2, 94.5% N2) for 48 h. Finally, the 96-well plate was stained with CCK-8 and the OD value determined (λ = 450 nm).
# [2] = system: breast adenocarcinoma MDA-MB-231 cells; assay: CCK-8 cell viability assay, MDA-MB-231; type: cell-based, human; settings: for inhibitory activity on cell viability compared with AZM: MDA-MB-231, normoxic and hypoxic, 48 h, Figure 5
# Experimental: as §1
# human osteosarcoma MG-63 = assay: CCK-8 cell viability assay, MG-63; type: cell-based; settings: hypoxic conditions
# Experimental: Then, considering the high inhibitory activity of 14a on the two isoforms of CA IX and XII, we evaluated the inhibitory activity of 14a on human osteosarcoma MG-63 featuring high expression of CA IX and XII.
# as §1
# hCA II = hCA II (Homo sapiens, UniProt P00918); assay: hCA II enzyme inhibition assay (4-NPA hydrolysis)
# Experimental: (§4) Carbonic anhydrase can catalyze the hydrolysis of 4-nitrophenyl acetate (4-NPA). […] The experimental buffer consisted of 15 mmol/L 4-(2-hydroxyethyl)-1-piperazineethanesulfonic acid (HEPES) (pH = 7.40), 0.01% tetraethylene glycol monododecyl ether (Brij), and 100 mmol/L NaCl. […] Then, 18 μL of enzyme solution was transferred into 384-well plates in duplicate. Stock solutions of the inhibitors (10.0 mmol/L) were prepared using DMSO as solvent, and then diluted 1:3 with DMSO. […] Then 2.00 μL of each inhibitor was added to each well. All compounds were allowed to incubate with the enzyme for 15 min at 25 °C to form the Enzyme-Inhibitor (E-I) complex. After that, substrate 4-NPA (1.00 mmol/L, 20.00 μL, Sigma-Aldrich, St. Louis, MI, USA) was added into the E-I complex solution and incubated for 60, 90, 90 min at 25 °C, respectively.
# hCA IX = hCA IX (Homo sapiens, UniProt Q16790); assay: hCA IX enzyme inhibition assay (4-NPA hydrolysis)
# Experimental: as §4
# hCA XII = hCA XII (Homo sapiens, UniProt O43570); assay: hCA XII enzyme inhibition assay (4-NPA hydrolysis)
# Experimental: as §4
# MDA-MB-231 = assay: Extracellular pH measurement, MDA-MB-231; type: cell-based, human; settings: MDA-MB-231, 0.1 and 1 mM, normoxic and hypoxic, Figure 7
# Experimental: (§2) The high expression of CA IX plays an important role in the maintenance of the tumor cell microenvironment, and inhibiting its activity might have a potential impact on the pH of the tumor microenvironment. To evaluate the effect of compounds on the pH of the microenvironment, the pH values under normoxic and hypoxic conditions were determined in the presence of compounds 14b, 14h, and 14p. […] In addition, this improvement in pH was dose-dependent.
# (§3) The measurement of the change of extracellular pH referred to the reported literature. In brief, cancer cells were incubated for 12 h. After removing the medium, fresh medium was added to the plates and then incubated for 48 h under hypoxia or normoxia. The pH of the medium was measured immediately. The tested compounds were dissolved in DMSO and diluted with culture medium to the desired concentration. After the addition of tested compounds, the same procedure was repeated.
# HT-29 = assay: Extracellular pH measurement, HT-29; type: cell-based, human; settings: HT-29, 0.1 and 1 mM, normoxic and hypoxic, Figure 7
# Experimental: as §2, §3
# Sequence of hCA XII (O43570 25-354): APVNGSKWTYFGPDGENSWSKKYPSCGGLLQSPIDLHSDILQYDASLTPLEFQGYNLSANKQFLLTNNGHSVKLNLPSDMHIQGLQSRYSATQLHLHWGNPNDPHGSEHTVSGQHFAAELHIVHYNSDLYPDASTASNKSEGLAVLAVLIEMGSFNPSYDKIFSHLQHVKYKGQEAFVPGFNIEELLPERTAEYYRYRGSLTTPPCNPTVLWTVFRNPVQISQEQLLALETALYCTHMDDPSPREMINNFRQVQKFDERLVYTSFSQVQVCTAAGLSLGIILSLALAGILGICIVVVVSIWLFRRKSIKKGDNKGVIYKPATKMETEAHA
SMILES,inhibitory activity on cell viability compared with AZM [1],inhibitory activity on cell viability compared with AZM [2],effect on MG-63 viability compared with AZM (human osteosarcoma MG-63),"reduction of viability of MG-63 cells (human osteosarcoma MG-63; 800 μM, 48 h)",IC50 (hCA II),IC50 (hCA IX),IC50 (hCA XII),effect on extracellular (tumor) pH (MDA-MB-231),effect on extracellular (tumor) pH (HT-29),"IC50 ([1]; Homo sapiens, HT-29, Table S2)","IC50 ([2]; Homo sapiens, MDA-MB-231, Table S2)"
"NS(=O)(=O)c1nnc(NC(=O)c2ccc(NC(=O)CCCC(=O)N[C@@H]3O[C@H](CO)[C@@H](O)[C@H](O)[C@H]3O)cc2)s1 [Compound 14a, N^1-(4-((5-Sulfamoyl-1,3,4-thiadiazol-2-yl)carbamoyl)phenyl)-N^5-((2R,3R,4S,5S,6R)-3,4,5-trihydroxy-6-(hydroxymethyl)tetrahydro-2H-pyran-2-yl)glutaramide]",better than those of the positive control drug AZM,better than those of the positive control drug AZM,significantly better than that of the positive control AZM,approximately 30%,141 ± 12.9 nM,29 ± 4.2 nM,141 ± 5.5 nM,,,,
"NS(=O)(=O)c1nnc(NC(=O)c2cccc(NC(=O)CCCC(=O)N[C@@H]3O[C@H](CO)[C@@H](O)[C@H](O)[C@H]3O)c2)s1 [Compound 14b, N^1-(3-((5-Sulfamoyl-1,3,4-thiadiazol-2-yl)carbamoyl)phenyl)-N^5-((2R,3R,4S,5S,6R)-3,4,5-trihydroxy-6-(hydroxymethyl)tetrahydro-2H-pyran-2-yl)glutaramide]",better than those of the positive control drug AZM,better than those of the positive control drug AZM,,,80.3 ± 11.5 nM,29 ± 1.5 nM,56 ± 8.5 nM,increased tumor pH to varying degrees,increased tumor pH to varying degrees,,
"COc1cc(C(=O)Nc2nnc(S(N)(=O)=O)s2)ccc1NC(=O)CCCC(=O)N[C@@H]1O[C@H](CO)[C@@H](O)[C@H](O)[C@H]1O [Compound 14h, N^1-(2-Methoxy-4-((5-sulfamoyl-1,3,4-thiadiazol-2-yl)carbamoyl)phenyl)-N^5-((2R,3R,4S,5S,6R)-3,4,5-trihydroxy-6-(hydroxymethyl)tetrahydro-2H-pyran-2-yl)glutaramide]",better than those of the positive control drug AZM,better than those of the positive control drug AZM,,,272 ± 9 nM,68.8 ± 10.2 nM,84.9 ± 7.6 nM,increased tumor pH to varying degrees,increased tumor pH to varying degrees,,
"COc1cc(C(=O)Nc2nnc(S(N)(=O)=O)s2)ccc1NC(=O)CCC(=O)N[C@@H]1O[C@H](CO)[C@@H](O)[C@H](O)[C@H]1O [Compound 14p, N^1-(2-Methoxy-4-((5-sulfamoyl-1,3,4-thiadiazol-2-yl)carbamoyl)phenyl)-N^4-((2R,3R,4S,5S,6R)-3,4,5-trihydroxy-6-(hydroxymethyl)tetrahydro-2H-pyran-2-yl)succinimide]",better than those of the positive control drug AZM,better than those of the positive control drug AZM,,,332 ± 16.8 nM,47.9 ± 7.1 nM,42.3 ± 9.4 nM,increased tumor pH to varying degrees,increased tumor pH to varying degrees,,
"CC(=O)O[C@H]1C(=O)[C@@]2(C)[C@H]([C@H](OC(=O)c3ccccc3)[C@]3(O)C[C@H](OC(=O)[C@H](O)[C@@H](NC(=O)c4ccccc4)c4ccccc4)C(C)=C1C3(C)C)[C@]1(OC(C)=O)CO[C@@H]1C[C@@H]2O [Taxol, reference compound]",,,,,,,,,,0.111 µg/mL,0.099 µg/mL

# From article PMC8196973, “Synthesis, Molecular Docking Analysis and Biological Evaluations of Saccharide-Modified Thiadiazole Sulfonamide Derivatives” (International Journal of Molecular Sciences, 2021)
